Like-named read-outs stand apart in the source and are kept apart here. Starred links: 1 amine or outer side, 2 acyl side, 3 side chain; linkers in the order of their positions; H or OH if unused. Non-standard residues stand in square brackets, D forms with d. Groups on a side chain read outwards from the residue. *: point of attachment. C18 diacid = O=C(O)CCCCCCCCCCCCCCCCC(=O)*; αMePhe(2-F) = C[C@](N)(Cc1ccccc1F)C(=O)O; γGlu = O=C(O)[C@H](CCC(=O)[*:2])N[*:1]; αMe4Pal = C[C@](N)(Cc1ccncc1)C(=O)O; αMeY = C[C@](N)(Cc1ccc(O)cc1)C(=O)O; 4Pal = N[C@@H](Cc1ccncc1)C(=O)O; αMeL = CC(C)C[C@](C)(N)C(=O)O; αMeS = C[C@](N)(CO)C(=O)O; Orn = NCCC[C@H](N)C(=O)O; AEEA = NCCOCCOCC(=O)O; Aib = CC(C)(N)C(=O)O
Assays:
[1] = tested on: Intestinal organoid from Göttingen minipig jejunum tissue, 2D monolayer; assay: Cell based in vitro permeability (Papp) assay; assay type: in vitro ADME
Procedure: Intestinal organoid from Göttingen minipig jejunum tissue and its 2D monolayer are generated using the protocol previously described ([…]-Thiele, […].; Wells, J. M., Optimized procedures for generating an enhanced, near physiological 2D culture system from porcine intestinal organoids. […] After 7 days of culture, organoids are dissociated into single cells by TrypLE (GIbco), and the single cell suspension is added in 24-well transparent transwell inserts (0.3 cm^2, Falcon, BD). […] Samples from the basal compartment are collected at 20 min in the presence of C10. Peptide concentrations in the apical and basal compartments are measured by LC/MS, and the apparent permeability coefficient (Papp) is calculated as previously described (Twarog, C.; Liu, K.; O'Brien, P. J.; Dawson, […] head-to-head Caco-2 assay comparison of the mechanisms of action of the intestinal permeation enhancers: SNAC and sodium caprate (C10).

hGIPR [2] = molecular target: T1, hGIPR (Homo sapiens, UniProt P48546); assay: Functional cAMP activity in the presence of 1% HSA; assay type: cell-based; conditions: read-out: cAMP Rel EC50, hGIPR
T1 sequence (P48546 22-466): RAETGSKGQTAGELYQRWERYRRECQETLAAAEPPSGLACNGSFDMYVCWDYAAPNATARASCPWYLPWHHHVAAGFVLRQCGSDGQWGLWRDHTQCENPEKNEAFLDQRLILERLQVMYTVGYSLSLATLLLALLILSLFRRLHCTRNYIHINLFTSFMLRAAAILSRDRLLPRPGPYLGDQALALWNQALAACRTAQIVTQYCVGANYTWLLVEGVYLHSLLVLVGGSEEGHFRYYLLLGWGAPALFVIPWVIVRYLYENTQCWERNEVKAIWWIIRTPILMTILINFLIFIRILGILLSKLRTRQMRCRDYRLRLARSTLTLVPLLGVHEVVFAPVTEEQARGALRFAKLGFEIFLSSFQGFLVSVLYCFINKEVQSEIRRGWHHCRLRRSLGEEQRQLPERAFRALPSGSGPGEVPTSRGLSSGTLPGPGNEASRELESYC

hGLP-1R [3] = molecular target: T2, hGLP-1R (Homo sapiens, UniProt P43220); assay: Functional cAMP activity in the presence of 1% HSA; assay type: cell-based; conditions: read-out: cAMP Rel EC50, hGLP-1R
T2 sequence (P43220 24-463): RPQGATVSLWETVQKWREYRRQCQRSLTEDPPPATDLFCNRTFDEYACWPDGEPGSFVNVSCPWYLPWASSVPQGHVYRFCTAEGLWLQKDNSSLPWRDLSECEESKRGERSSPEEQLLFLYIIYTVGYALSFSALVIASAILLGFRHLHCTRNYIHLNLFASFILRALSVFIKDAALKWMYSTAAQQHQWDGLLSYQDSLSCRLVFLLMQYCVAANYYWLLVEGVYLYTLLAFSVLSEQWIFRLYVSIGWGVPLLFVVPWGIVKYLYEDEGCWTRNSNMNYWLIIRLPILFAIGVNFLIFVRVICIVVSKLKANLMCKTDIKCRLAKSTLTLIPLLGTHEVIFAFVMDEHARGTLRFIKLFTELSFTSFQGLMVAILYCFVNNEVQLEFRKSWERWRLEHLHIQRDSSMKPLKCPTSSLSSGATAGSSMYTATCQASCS

hGcgR = hGcgR (Homo sapiens, UniProt P47871); assay: Functional cAMP activation in the presence of 0.1% casein (no HSA); assay type: cell-based; conditions: read-out: Relative cAMP EC50, hGcgR;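 also: intracellular cAMP rise after 30 min at 37 °C, read by HTRF against a cAMP standard curve, scaled from buffer only (0%) to maximal control ligand response (100%)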
Chain of hGcgR (P47871 26-477): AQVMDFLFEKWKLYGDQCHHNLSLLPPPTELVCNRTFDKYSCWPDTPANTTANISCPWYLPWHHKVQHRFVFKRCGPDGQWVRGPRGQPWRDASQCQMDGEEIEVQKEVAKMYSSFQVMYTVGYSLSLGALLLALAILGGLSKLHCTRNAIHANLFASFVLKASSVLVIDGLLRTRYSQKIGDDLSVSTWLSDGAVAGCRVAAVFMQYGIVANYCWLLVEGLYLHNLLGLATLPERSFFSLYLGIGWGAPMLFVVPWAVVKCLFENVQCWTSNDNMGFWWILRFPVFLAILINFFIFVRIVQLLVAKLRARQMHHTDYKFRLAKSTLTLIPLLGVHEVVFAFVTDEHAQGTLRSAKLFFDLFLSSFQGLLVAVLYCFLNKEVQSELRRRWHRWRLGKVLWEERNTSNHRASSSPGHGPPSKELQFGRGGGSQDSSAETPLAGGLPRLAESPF

hGIPR [4] = molecular target: T1, hGIPR; assay: as above; assay type: cell-based; conditions: read-out: Relative cAMP EC50, hGIPR
human GcgR = human GcgR (Homo sapiens, UniProt P47871); assay: Functional cAMP activity in the presence of 1% HSA; assay type: cell-based; conditions: read-out: cAMP Rel EC50, hGcgR
Chain of human GcgR (P47871 26-477): as above

hGLP-1R [5] = molecular target: T2, hGLP-1R; assay: Functional cAMP activation in the presence of 0.1% casein (no HSA); assay type: cell-based; conditions: read-out: Relative cAMP EC50, hGLP-1R;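 as to Relative cAMP EC50, hGIPR: intracellular cAMP rise after 30 min at 37 °C read by HTRF against a standard curve, scaled between buffer alone (0%) and top control ligand concentration (100%), four-parameter fit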;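 as to Relative cAMP EC50, hGLP-1R: intracellular cAMP rise after 30 min at 37 °C read by HTRF, normalized between buffer only (0%) and maximal control ligand (100%), four-parameter variable-slope fit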
[6] = in the presence of 0.1% casein (no HSA), geometric mean

| Compound | Relative Papp (Compared to internal standard) [1] | EC50 (hGIPR [2]) | EC50 (hGLP-1R [3]) | EC50 (hGcgR) | EC50 (hGIPR [4]) | EC50 (human GcgR) | EC50 (hGLP-1R [5]) | EC50 (hGcgR; [6]) | EC50 (hGIPR [4]; [6]) | EC50 (hGLP-1R [5]; [6]) |
| --- | --- | --- | --- | --- | --- | --- | --- | --- | --- | --- |
| H-Y[Aib]QGT[αMePhe(2-F)]TSD[4Pal]SILLDKK([γGlu-γGlu-C18 diacid])AQ[Aib]AFIE[αMeY]LEEGGPSSGAPPPSGSGE-NH2 [Example 666] | 0.85 | 1.39 nM | 32.3 nM | 2 nM | 0.0203 nM | 224 nM | 0.337 nM |  |  |  |
| H-Y[Aib]QGT[αMePhe(2-F)]TSD[4Pal][αMeS]I[αMeL]LD[Orn]K([AEEA-γGlu-C18 diacid])AQ[αMe4Pal]EFI[dE][αMeY]LIEGGPSSGEPPPSGS-NH2 [Example 710] | 0.35 | 0.589 nM | 28.7 nM | 1.52 nM | 0.00578 nM | 126 nM | 0.274 nM |  |  |  |
| H-Y[Aib]QGTFTSDFS[Orn][αMeL]LDKK([γGlu-γGlu-C18 diacid])AQ[Aib]AFIEYLLEGGPSSGAPPPGGS-NH2 [Example 198] | 0.12 | 38.8 nM | 761 nM |  |  | 1300 nM |  | 6.85 nM | 0.182 nM | 4.36 nM |
| H-Y[Aib]QGT[αMePhe(2-F)]TSD[4Pal][αMeS]I[αMeL]LD[Orn]K([γGlu-γGlu-C18 diacid])AQ[αMe4Pal]EFI[dE][αMeY]LIEGGPSSGAPPPSGGGE-NH2 [Example 743] | 0.56 | 0.432 nM | 21.2 nM | 1.49 nM | 0.00694 nM | 133 nM | 0.259 nM |  |  |  |
| H-Y[Aib]QGTFTSDFS[Orn][αMeL]LDKK([AEEA-AEEA-γGlu-C18 diacid])AQ[Aib]AFIEYLLE[Aib]GHSSGAPPPSGT-NH2 [Example 182] | 0.12 | 9.95 nM | 398 nM |  |  | 1480 nM |  | 5.33 nM | 0.0781 nM | 4.8 nM |
| H-Y[Aib]QGTFTSDFS[Orn][αMeL]LDKK([AEEA-γGlu-C18 diacid])AQ[Aib]AFIEYLLEGGPSSGAPPPEGS-NH2 [Example 130] | 0.06 | 60.5 nM | 865 nM |  |  | 1080 nM |  | 3.74 nM | 0.411 nM | 4.29 nM |
| H-Y[Aib]QGT[αMePhe(2-F)]TSD[4Pal]SILLD[Orn]K([AEEA-γGlu-C18 diacid])AQ[αMe4Pal]EFI[dE][αMeY]LLEGGPSSGAPPPSGS-NH2 (C-terminus assumed) [Example 670] | 0.46 |  |  |  |  |  |  |  |  |  |
| CC[C@H](C)[C@H](NC(=O)[C@H](Cc1ccccc1)NC(=O)[C@H](C)NC(=O)C(C)(C)NC(=O)[C@H](CCC(N)=O)NC(=O)[C@H](C)NC(=O)[C@H](CCCCNC(=O)COCCOCCNC(=O)CC[C@H](NC(=O)CCCCCCCCCCCCCCCCC(=O)O)C(=O)O)NC(=O)[C@H](CCCCN)NC(=O)[C@H](CC(=O)O)NC(=O)[C@H](CC(C)C)NC(=O)[C@](C)(CC(C)C)NC(=O)[C@H](CCCN)NC(=O)[C@H](CO)NC(=O)[C@H](Cc1ccccc1)NC(=O)[C@H](CC(=O)O)NC(=O)[C@H](CO)NC(=O)[C@@H](NC(=O)[C@H](Cc1ccccc1)NC(=O)[C@@H](NC(=O)CNC(=O)[C@H](CCC(N)=O)NC(=O)C(C)(C)NC(=O)[C@@H](N)Cc1ccc(O)cc1)[C@@H](C)O)[C@@H](C)O)C(=O)N[C@@H](CCC(=O)O)C(=O)N[C@@H](Cc1c[nH]c2ccccc12)C(=O)N[C@@H](CC(C)C)C(=O)N[C@@H](CC(C)C)C(=O)N[C@@H](CCC(=O)O)C(=O)NCC(=O)NCC(=O)N1CCC[C@H]1C(=O)N[C@@H](CO)C(=O)N[C@@H](CO)C(=O)NCC(=O)N[C@@H](C)C(=O)N1CCC[C@H]1C(=O)N1C[C@H](O)C[C@H]1C(=O)N1CCC[C@H]1C(=O)N[C@@H](CO)C(=O)NCC(=O)N[C@@H](CCC(=O)O)C(N)=O [Example 137] | 0.04 |  |  |  |  |  |  |  |  |  |
